In US20180085356A1, “METHOD OF TREATING DISEASE CHARACTERISED BY PROTEIN AGGREGATE DEPOSITION IN NEURONAL CELLS” (CHRONOS THERAPEUTICS LIMITED, priority 2013, published 2018):

Tests used:
[1] = system: α-synuclein and phospho-Tau (p-Tau); assay: Immunohistochemistry for α-synuclein and p-Tau in SNc of 6-OHDA-lesioned rats; format: in vivo, rat; details: 1 mg/kg s.c., 3 months; p<0.05 vs. vehicle
Method: After 3 months, 10 randomly selected rats (5 from each group) were terminally anaesthetised. Blood and striatal tissue samples were taken and the posterior brain block containing the SNc was fixed by immersion in 4% paraformaldehyde in 0.1 M phosphate buffer (PB) for 24 hours. Following cryoprotection in 30% sucrose in 0.1M PB for 2-3 days and freezing the blocks in liquid nitrogen, samples were stored at −80° C. for α-synuclein and phospho-Tau (p-Tau) immunohistochemistry (IHC). This was repeated for 11 rats at 6 months (randomly selected from the surviving rats in both groups). Immunohistochemistry for α-synuclein and p-Tau was carried out. Brain samples containing the SNc region were double-immunostained for p-Tau (AT8) and α-synuclein. The number of positive cells for each single stain and the number of double-stained cells was manually counted for 6 sections per animal.

TNF-α = assay: Blood TNF-α levels in healthy human volunteers given tacrolimus capsule; format: in vivo
Method: A hard gelatine capsule was filled with the following composition:
One capsule as above containing 0.3 mg tacrolimus was administered daily to healthy human volunteers for three successive days. […] Similarly, no change in TNF-α levels occurred as a result of administering 0.6 mg daily of tacrolimus to healthy volunteers. The average trough level of tacrolimus (level after 24 hours of administration of each dose) observed was approximately 220 pg/ml.

[2] = system: FET3, SOD1, SOD2, COX9 transcripts; assay: Yeast transcript analysis by RT-qPCR; format: cell-based, Saccharomyces cerevisiae; details: 10 μg/ml tacrolimus, cultures aged 3 days, normalised to U4 snRNA
Method: A pre-culture was diluted 1/100 into synthetic complete medium and tacrolimus was added to a final concentration of 10 μg/ml. (An equivalent volume of DMSO was added to a parallel culture as a control.) The cultures were then allowed to age for 3 days, before RNA extraction and transcript analysis by reverse transcription-qPCR (RT-qPCR). (Transcript levels are normalised to that of the U4 snRNA.)

[3] = system: unilaterally 6-OHDA-lesioned rats; assay: Amphetamine-induced rotational asymmetry in unilaterally 6-OHDA-lesioned rats; format: in vivo, rat; details: 1 mg/kg s.c. 6 days/week, by 6 months, compared to baseline; p<0.05 vs. vehicle at 6 months
Text: The objective of this study was to investigate the effect of chronic subcutaneous (s.c) tacrolimus treatment in an aged rat model of Parkinson's disease. Lesion of dopaminergic projections was created by unilateral injection of 6-hydroxydopamine (6-OHDA) in the right medial forebrain bundle (MFB), causing a widespread de-afferentation of substantia nigra pars compacta (SNc) and ventral tegmental area (VTA) terminal fields. The animals can then be monitored for amphetamine-induced rotation asymmetry behaviour: because the lesion is unilateral, asymmetric movement is observed. The degree to which a drug treatment is able to counteract the effects of the lesion can be measured by the reduction in the asymmetry of movement (i.e. the number of clockwise (CW) rotations vs. the number of counterclockwise (CCW) rotations). 50 female Fischer rats aged 18 months were stereotactically injected with 4 μl […] 6-OHDA into the right MFB. […] Motor asymmetry was monitored in automated rotometer bowls (TSE Systems, Germany) for 120 minutes after injection of amphetamine (2.5 mg/kg s.c.). The net rotation asymmetry score for amphetamine test was calculated by subtracting contralateral turns from the ipsilateral turns to the lesion side.

[4] = system: primary motor neuron (MN) cultures generated from rat spinal cord; assay: Motor neuron culture with Aβ1-42 insult: neurite network and survival (MAP-2 staining); format: cell-based; details: 24 hours after 20 μM Aβ1-42 insult, treated 1 hour before
Method: Primary motor neuron (MN) cultures generated from rat spinal cord were treated with 20 μM amyloid beta 1-42 peptide (Aβ1-42). […] This model was used to determine the effect of tacrolimus on TDP-43 toxicity in motor neurons. […] After permeabilisation with 0.1% saponin, one group of cells was incubated for 2 hours with a) mouse monoclonal anti-microtubule-associated-protein 2 (MAP-2) antibody, and b) rabbit polyclonal anti-TDP-43 antibody. The anti-MAP-2 antibody was used to determine MN survival (number of stained MN) and MN neurite length. The anti-TDP-43 antibody was used to examine extranuclear TDP-43: the area of extranuclear TDP-43 staining per MN was calculated by normalising to the number of MAP-2 positive cells.

TDP-43(Q331K) mice = assay: Rotarod testing of TDP-43(Q331K) transgenic mice; format: in vivo, mouse; details: tacrolimus 0.25, 1.25 and 2.5 mg/kg p.o. 6 days a week for 70 weeks vs. vehicle

## C=CC[C@@H]1/C=C(\C)C[C@H](C)C[C@H](OC)[C@H]2O[C@@](O)(C(=O)C(=O)N3CCCC[C@H]3C(=O)O[C@H](/C(C)=C/[C@@H]3CC[C@@H](O)[C@H](OC)C3)[C@H](C)[C@@H](O)CC1=O)[C@H](C)C[C@@H]2OC [tacrolimus, Tacrolimus]
[1]
  number of cells staining positively for p-Tau: lower counts of positive cells
  number of cells staining positively for α-synuclein: lower counts of positive cells
TNF-α; 0.3 mg capsule daily for three successive days
  blood TNF-α levels: No significant changes
TNF-α; 0.6 mg daily
  TNF-α levels: no change
[2]
  expression of transcripts FET3, SOD1, SOD2 and COX9: upregulated
[3]
  amphetamine-induced rotational asymmetry: significant reduction in rotational asymmetry
[4]; p<0.05 all concentrations vs. Aβ
  motor neuron neurite network: concentration-dependent increase
[4]; p<0.05 for 100 nM, 1 μM vs. Aβ
  motor neuron survival: concentration-dependent increase
TDP-43(Q331K) mice
  progression of motor decline (rotarod latency): delays the progression of motor decline
